Reference: the NIST ThermoML archive (doi:10.1016/j.jct.2011.03.013)
Values joined by “and” are separate entries in the source; they are usually repeats but may differ in a detail not shown here. Identical values can stand only once.

Settings: Crystal; for vapor or sublimation pressure: Calculated from knudsen effusion weight loss; for molar enthalpy of sublimation: 298.15 K, Drop Calorimetry

N#Cc1cccc2ccccc12 [1-cyanonaphthalene]
Settings | molar enthalpy of sublimation [kcal/mol] | vapor or sublimation pressure
– | 21.1 | –
289.1 K | – | 0.00012 kPa and 0.000125 kPa
291.12 K | – | 0.000163 kPa and 0.000156 kPa and 0.000157 kPa
293.12 K | – | 0.000208 kPa and 0.0002 kPa and 0.000196 kPa
295.12 K | – | 0.000275 kPa and 0.000251 kPa and 0.000265 kPa
297.13 K | – | 0.000324 kPa and 0.000319 kPa
299.13 K | – | 0.000426 kPa and 0.000418 kPa and 0.000416 kPa
301.12 K | – | 0.000535 kPa and 0.000532 kPa and 0.000527 kPa
303.3 K | – | 0.000724 kPa and 0.00069 kPa and 0.000686 kPa
305.12 K | – | 0.000843 kPa and 0.000849 kPa and 0.00084 kPa
307 K | – | 0.001033 kPa and 0.001044 kPa and 0.001034 kPa

N#Cc1ccc2ccccc2c1 [2-naphthalenecarbonitrile]
Settings | molar enthalpy of sublimation [kcal/mol] | vapor or sublimation pressure
– | 21.7 | –
296.18 K | – | 9e-05 kPa and 9.2e-05 kPa and 9.1e-05 kPa
298.11 K | – | 0.000115 kPa and 0.000117 kPa and 0.000116 kPa
300.19 K | – | 0.000159 kPa and 0.000153 kPa and 0.000154 kPa
302.18 K | – | 0.000196 kPa and 0.000201 kPa and 0.000197 kPa
304.1 K | – | 0.000245 kPa and 0.000244 kPa
306.18 K | – | 0.000319 kPa and 0.000303 kPa and 0.000304 kPa
308.15 K | – | 0.000391 kPa and 0.000388 kPa and 0.000396 kPa
310.09 K | – | 0.000487 kPa and 0.000485 kPa and 0.000491 kPa
312.19 K | – | 0.000636 kPa and 0.000617 kPa and 0.000618 kPa
314.16 K | – | 0.000783 kPa and 0.000762 kPa and 0.000803 kPa
316.1 K | – | 0.000948 kPa and 0.000947 kPa and 0.000994 kPa
